The text below walks through data of patent publication US8609730B2, “Rel inhibitors and methods of use thereof” (The Trustees of the University of Pennsylvania, priority 2008, dated 2013).

Entries after “also recorded” stand apart in the source; their conditions may differ.

Series [1] has as its system splenocytes or CD4+ T cells of C57BL/6 mice. Put plainly: Cell survival / dead cells by flow cytometry (annexin-V and propidium iodide). The format is cell-based. Further details: survival of CD4+ T cells or total splenocytes: dose or concentration left out as unconfirmed. The procedure: (§1) Splenocytes of C57BL/6 mice (n=4) were cultured with or without plate-bound anti-CD3 (1 ug/ml) and soluble anti-CD28 (2 ug/ml), in the presence of various concentrations of R96 as indicated. R96 was dissolved in PBS, and the amount of the PBS added to each culture was identical ([…]). Twenty-four hours later, cytokines in the supernatant were determined by ELISA (A-C). The percentages of dead cells in the culture were determined by flow cytometry following staining cells with annexin-V and propidium iodide (PI)(D).
To determine whether the c-Rel blockers identified above are effective in regulating inflammatory cell function, splenocytes or purified CD4+ splenic T cells of C57BU6 mice were treated with anti-CD3 and anti-CD28 in the presence of increasing concentrations of the compounds. Cytokine expression was determined by ELISA, flow cytometry or real-time PCR, whereas CD4 expression and cell survival were determined by flow cytometry alone. […] The IC50 of R96 for IL-2 inhibition is […]. […] Because Th1 cytokine IFN-g inhibits the activity of Th2 cells, the increased IL-4 in cultures containing […] R96 could be due to the reduced IFN-g in the culture. […] In fact, c-Rel-deficient mice have reduced but not increased IgG1, IgG3 and IgE production.
For orientation: A flow cytometer gives signals particle by particle.

Series [2] deals with splenocytes or purified CD4+ splenic T cells of C57BL/6 mice. Put plainly: Cell-based assay for testing c-Rel blockers: cytokine expression with anti-CD3 and anti-CD28. Further details: IL-4 in culture: dose or concentration left out as unconfirmed. Conditions: for IL-2 production by T cells (IL-2 release assay, secondary screening): hits of virtual screening. Here is the method:
as §1
To design drugs that could disable human c-Rel binding to DNA (therefore blocking the biological activity of c-Rel), chicken c-Rel 3-D model was first humanized by replacing chicken residues with their human counterparts. The model was then minimized using the Insight II software (Accelrys, Inc). The minimized model was used to discover small molecule inhibitors that can interfere with the residues in loops L1 and L2. A small druggable cavity was identified using programs available in Insight II. This structure was designated as the L1 cavity. The L1 cavity is formed by loops L1, L2 and a helix. Residues Arg 21, Cys 26, Glu 27, Lys 110 and Lys 111 form the mouth of the L1 cavity (FIG. 2). A virtual screening approach was used to identify small molecule inhibitors that block DNA binding to the L1 cavity by perturbing these key contact residues as we previously described. From ˜50,000 drug-like molecules of available chemical libraries, about 100 hits were identified. […] These compounds fall into two structural classes, the phenylcarbamates (FIG. 2C) and sulfanyl-methaniminium-based compounds, represented by R13:
To determine whether the c-Rel blockers identified above are effective in regulating inflammatory cell function, splenocytes or purified CD4+ splenic T cells of C57BU6 mice were treated with anti-CD3 and anti-CD28 in the presence of increasing concentrations of the compounds. Cytokine expression was determined by ELISA, flow cytometry or real-time PCR, whereas CD4 expression and cell survival were determined by flow cytometry alone. […]

Series [3] concerns C57BL/6 mice immunized to induce EAE. The experiment in a line: EAE induced with MOG38-50 peptide, prevention and treatment. The series is classed as in vivo. Conditions: for treating ongoing EAE (after onset): i.p. daily after onset, 100 ug/mouse/injection.
Series [4] deals with spleen cells of B6 mice. Put plainly: Cytokine production by spleen cells treated with anti-CD3 antibody (ELISA). The series is classed as cell-based. Here is the method: FIG. 1. FIG. 1A depicts a graph showing the IL-2 inhibitory effect of R13D (compound III), R13096 (compound CXX), and R13015 (compound VI). FIG. 1B depicts a graph showing the IFN-gamma inhibitory effect of R13D (compound III), R13096 (compound CXX), and R13015 (compound VI).
FIG. 3. Depicts a graph showing Splenocytes that were cultured under various conditions as indicated on the X-axis. Twenty-four hours later, cytokines in the supernatant were determined by ELISA (R13D is compound III, R31C. is compound IV, R32D is compound VII).
To determine whether these inhibitors are effective in suppressing cytokine production by inflammatory cells, spleen cells of B6 mice were treated with anti-CD3 antibody (to activate the inflammatory cells) with or without different concentrations of the compounds. […] As further shown in FIG. 1 IL-2 and IFN-gamma were inhibited by […], and compound VI at concentrations ranging from 5-20 μM.

Setting [5] is: FIG. 1, concentrations ranging from 5-20 μM.
[6] abbreviates: anti-CD3 treated spleen cells, 24 h, FIG. 3.

For the molecule `Br.N#Cc1ccc(CSC(=N)Nc2ccccc2)cc1` [R96], in series [1] (highest concentration tested), the “survival of CD4+ T cells or total splenocytes” value is reported as “does not significantly affect”. Further, the “percentage of annexin-V+ and PI+ cells (dead cells)” value in series [1] (various concentrations, 24 h) was “No significant differences”. Also, in series [2] (cultures containing R96), the IL-4 in culture entry is on record as “increased”. In series [2], the “IL-2 production by T cells (IL-2 release assay, secondary screening)” value is given as “most potent”. The “treating ongoing EAE (after onset)” value in series [3] is “statistically significant; also recorded: significantly ameliorated”. Further, in series [3] (seven days into the treatment after onset, FIG. 5C, control 1.83±0.16, p<0.001), the mean disease score worked out at 0.75±0.43.

Turning to `CC(C)(C)c1cc(NC(=O)/C(C#N)=C/c2cccc(Cl)c2Cl)c(C(N)=O)s1` [compound V], in series [4] (setting [5]), the IFN-gamma inhibition result is reported as “inhibited” and the IL-2 inhibition entry is reported as “inhibited”.

Consider `O=C(Nc1ccccc1)OCc1nccn1Cc1ccc(Cl)cc1` [R13], for which, in series [4] (setting [6]), the “Interleukin (IL)-2 production” value was “significantly inhibited” and the interferon-gamma production result is reported as “significantly inhibited”. Further, the “IL-2 production by T cells (IL-2 release assay, secondary screening)” value in series [2] was “significantly inhibited”. Besides, the “treating ongoing EAE (after onset)” value in series [3] is reported as “statistically significant; also recorded: significantly ameliorated”. Moreover, the “preventing EAE (prophylaxis)” value in series [3] (i.p. daily from day 1 to day 13, 100 ug/mouse/injection (100 mg)) is reported as “statistically significant”.
